Data reported in patent US8962793B2, “ErbB interface peptidomimetics and methods of use thereof” (The Trustees of the University of Pennsylvania, priority 2001, dated 2015).
Bridge positions count the residues as written; N and C are the ends. Peptide text beside a SMILES is read from it.

Assays:
[1] = target: T1, erbB3-erbB3 homomerization (Homo sapiens, UniProt P21860); assay: SPR inhibition of HRGβ1-induced binding of ErbB3 to immobilized ErbB3; details: peptide 10 μm, ErbB3 300 nm, HRGβ1 5 μM
T1 construct: the ectodomains of erbB receptors were immobilized on the surface chip; erbB3: gift of Dr. Mark A. Lemmon
T1 sequence (P21860 20-643 limits assumed): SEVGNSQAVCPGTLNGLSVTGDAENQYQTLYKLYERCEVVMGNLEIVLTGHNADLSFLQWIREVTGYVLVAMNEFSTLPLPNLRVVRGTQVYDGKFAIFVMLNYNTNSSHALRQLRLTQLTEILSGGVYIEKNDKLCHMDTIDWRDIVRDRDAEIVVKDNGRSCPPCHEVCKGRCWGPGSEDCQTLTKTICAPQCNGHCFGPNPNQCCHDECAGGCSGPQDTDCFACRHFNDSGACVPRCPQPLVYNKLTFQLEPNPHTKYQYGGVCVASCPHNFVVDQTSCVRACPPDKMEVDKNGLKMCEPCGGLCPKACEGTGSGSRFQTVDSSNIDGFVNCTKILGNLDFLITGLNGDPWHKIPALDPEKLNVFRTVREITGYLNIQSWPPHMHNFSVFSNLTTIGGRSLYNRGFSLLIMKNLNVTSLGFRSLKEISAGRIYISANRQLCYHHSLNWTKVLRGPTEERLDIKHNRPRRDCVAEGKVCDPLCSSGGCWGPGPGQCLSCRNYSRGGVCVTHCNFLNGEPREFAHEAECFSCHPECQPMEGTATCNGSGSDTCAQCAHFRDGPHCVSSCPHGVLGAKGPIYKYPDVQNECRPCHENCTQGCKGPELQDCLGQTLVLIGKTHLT
Method: (§1) The effect of cysteine-knot mimetics on receptor self-associations, was examined using a Biacore assay in which the ectodomains of erbB receptors were immobilized on the surface chip and the ectodomain of erbB3 was injected at 300 nM concentrations either alone or in the presence of 5 μM hereglunin HRGβ1.
(§2) The effect of the erbB peptides on heregulin-induced receptor self-associations was studied by preinjecting them at 10 μM followed by injection of erbB3-HRGβ1 (FIG. 4; 1B, 2B, 3B).
(§3) Binding experiments were performed with the surface plasmon resonance based biosensor instrument Biacore 3000 (Biacore AB, Uppsala, Sweden), at 25° C. […] (erbB2) and Dr. Mark A. Lemmon, Department of Biochemistry and Biophysics, University of Pennsylvania School of Medicine (erbB1 and erbB3). Immobilization of the erbB receptors in the sensor surface was performed following the standard amine coupling procedure according to manufacturer's instructions. Briefly, 35 μl of a solution containing 0.2 M N-ethyl-N′-(dimethylaminopropyl) carbodiimide (EDC) and 0.05 M N-hydroxysuccinimide (NHS), were injected at a flow rate of 5 μl/min to activate carboxyl groups on the sensor chip surface. Receptors (40 ng/ml in 10 mM NaOAc buffer, pH 5.0) were flowed over the chip surface at a flow rate of 20 μl/min until the desired level bound protein was reached. Unreacted protein was washed out and unreacted activated groups were blocked by the injection of 35 μl of 1 M ethanolamine at 5 μl/min. […] A reference surface was generated simultaneously under the same conditions but without receptor injection and used as a blank to correct for instrument and buffer artifacts. Peptides were injected at variable concentrations at 20 μl/min flow rate and binding to the receptors immobilized on the chip was monitored in real time. Each sensorgram consists of an association phase (first 240 s), reflecting binding of the injected peptide to the receptor, followed by a dissociation phase (300 s), during which the running buffer is passed over the chip and the bound peptide is being washed off the receptor surface.

ErbB2 = target: T2, ErbB2 (Homo sapiens, UniProt P04626); assay: Surface plasmon resonance (Biacore) binding to immobilized ErbB2 extracellular domain; details: immobilized extracellular domain, surface plasmon resonance; read-out: KD (μM) ErbB2
T2 construct: provided by Dr. Che Law, Xcyte Therapeutics, Seattle
T2 sequence (P04626 23-652 limits assumed): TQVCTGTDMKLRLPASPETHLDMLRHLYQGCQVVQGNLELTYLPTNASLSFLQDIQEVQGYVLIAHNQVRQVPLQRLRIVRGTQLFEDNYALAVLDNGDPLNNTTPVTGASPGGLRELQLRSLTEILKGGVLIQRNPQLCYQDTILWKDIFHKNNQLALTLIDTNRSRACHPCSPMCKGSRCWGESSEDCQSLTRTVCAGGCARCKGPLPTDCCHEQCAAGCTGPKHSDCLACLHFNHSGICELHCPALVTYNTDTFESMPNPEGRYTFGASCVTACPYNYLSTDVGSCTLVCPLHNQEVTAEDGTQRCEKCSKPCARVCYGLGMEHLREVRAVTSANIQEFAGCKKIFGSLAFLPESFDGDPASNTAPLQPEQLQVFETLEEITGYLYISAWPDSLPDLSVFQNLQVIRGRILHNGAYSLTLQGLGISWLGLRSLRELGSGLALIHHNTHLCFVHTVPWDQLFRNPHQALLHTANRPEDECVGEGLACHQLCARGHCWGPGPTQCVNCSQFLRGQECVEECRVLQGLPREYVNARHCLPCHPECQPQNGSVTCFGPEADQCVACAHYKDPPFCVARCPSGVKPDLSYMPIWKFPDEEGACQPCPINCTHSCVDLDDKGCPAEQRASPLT
Method: The designed erbB peptides were tested for binding to erbB receptors using surface plasmon resonance (Biacore) technology (described supra) using soluble erbB-1 and erbB-3. The response was plotted in real time in the form of sensorgram curves. Dissociation constants (Kd) were determined as described (Park, et al. 2000, Nat. Biotechnol. 18:194-198).
A sensorgram for binding of B2-S22-APE peptide to erbB receptors immobilized on the sensor chip was performed.
as §3

[2] = target: T3, erbB2-erbB4 receptor heteromerization in the 32D-E2/E4 cells (Homo sapiens, UniProt P04626); assay: Chemical cross-linking and immunoblotting of heregulin-induced receptor dimerization in 32D-E2/E4 cells; format: cell-based; details: dose-dependent, FIG. 5B, read-out: apparent IC50 of inhibition of receptor dimerization
T3 construct: dimerization of native full-length ErbB receptors was studied using the 32D cell lines transfected with different erbB receptors; host or cells: 32D cells (32D-E2/E4)
T3 sequence (P04626 23-1255, one chain of several): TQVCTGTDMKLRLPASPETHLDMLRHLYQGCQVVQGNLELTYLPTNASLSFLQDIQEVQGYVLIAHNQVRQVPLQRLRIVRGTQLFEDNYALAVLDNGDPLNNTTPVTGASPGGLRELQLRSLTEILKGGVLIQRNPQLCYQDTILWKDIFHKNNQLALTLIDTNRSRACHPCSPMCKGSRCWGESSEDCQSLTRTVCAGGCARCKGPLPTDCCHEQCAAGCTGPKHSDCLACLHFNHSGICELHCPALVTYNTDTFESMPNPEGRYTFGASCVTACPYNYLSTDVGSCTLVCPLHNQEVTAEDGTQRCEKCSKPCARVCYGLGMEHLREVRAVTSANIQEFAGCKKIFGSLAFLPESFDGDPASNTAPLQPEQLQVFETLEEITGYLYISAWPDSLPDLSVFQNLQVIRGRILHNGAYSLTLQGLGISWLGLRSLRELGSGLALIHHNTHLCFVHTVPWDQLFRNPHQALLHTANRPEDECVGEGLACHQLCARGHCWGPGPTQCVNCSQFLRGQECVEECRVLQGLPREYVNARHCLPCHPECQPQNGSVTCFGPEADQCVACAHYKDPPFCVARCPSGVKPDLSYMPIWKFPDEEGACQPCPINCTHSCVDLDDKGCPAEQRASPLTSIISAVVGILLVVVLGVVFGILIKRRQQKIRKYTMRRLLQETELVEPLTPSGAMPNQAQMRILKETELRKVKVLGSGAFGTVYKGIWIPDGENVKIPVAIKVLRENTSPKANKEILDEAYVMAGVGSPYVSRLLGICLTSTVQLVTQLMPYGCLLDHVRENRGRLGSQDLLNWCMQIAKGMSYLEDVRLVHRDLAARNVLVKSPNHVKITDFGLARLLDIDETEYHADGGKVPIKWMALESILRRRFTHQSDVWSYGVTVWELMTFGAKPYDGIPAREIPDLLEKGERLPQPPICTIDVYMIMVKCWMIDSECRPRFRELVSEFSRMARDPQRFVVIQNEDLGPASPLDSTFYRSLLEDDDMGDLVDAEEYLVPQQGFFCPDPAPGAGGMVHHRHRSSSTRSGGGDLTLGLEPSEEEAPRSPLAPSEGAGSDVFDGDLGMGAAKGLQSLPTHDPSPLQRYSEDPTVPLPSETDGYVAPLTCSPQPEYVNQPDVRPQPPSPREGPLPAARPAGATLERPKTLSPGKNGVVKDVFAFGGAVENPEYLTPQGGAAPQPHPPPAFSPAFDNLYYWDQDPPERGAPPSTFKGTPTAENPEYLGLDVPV
Method: Effect of the ErbB peptides on biochemically defined dimerization of native full-length ErbB receptors was studied using the 32D cell lines transfected with different erbB receptors. 32D-E1 cells were transfected with erbB1; 32D-E2/E3 with erbB2 and erbB3; and 32D-E2/E4 with erbB2 and erbB4.
32D cell transfectants with ErbB receptors (gift from Dr. Jacalyn H. Pierce, National Cancer Institute) were grown in RPMI 1640, 10% FBS and 5% WEHI medium (GenoQuest, Interlukin-3 supplement) and respective antibiotics, i.e. 32D-E1 (gptr), 32D-E2/E3 (neor/gptr) and 32D-E2/E4 (neor/gptr) (29). The WEHI medium was withdrawn and cells were pre-incubated with ErbB peptides for 2 hours at 37° C. before adding 10 μg/ml EGF (for 32D-E1, Collaborative Biomedical Products) or 10 μg/ml HRG 1 (for 32D-E2/E3 or 32D E2/E4, R&D Systems) and further incubated at 37° C. for 24-48 hours. The cell viability was detected with propidium iodide staining followed by flow cytometry quantification. For the cross-linking analysis, approximately 2×10^6 cells were suspended in RPMI 1640 medium containing 0.1% BSA and 10 mM HEPES, and pre-incubated with ErbB peptides for 2 hours at 37° C. before adding 10 μg/ml EGF or 10 μg/ml Heregulin-β1 EGF domain and further incubated at 37° C. for 10-15 minutes. Cells were rinsed with PBS and incubated in 2 mM BS^3/PBS at 4° C. for 45 minutes. […]

ErbB1 = target: T4, ErbB1 (Homo sapiens, UniProt P00533); assay: Surface plasmon resonance (Biacore) binding to immobilized ErbB1 extracellular domain; details: immobilized extracellular domain, surface plasmon resonance; read-out: KD (μM) ErbB1
T4 construct: gift of Dr. Mark A. Lemmon, University of Pennsylvania School of Medicine
T4 sequence (P00533 25-645 limits assumed): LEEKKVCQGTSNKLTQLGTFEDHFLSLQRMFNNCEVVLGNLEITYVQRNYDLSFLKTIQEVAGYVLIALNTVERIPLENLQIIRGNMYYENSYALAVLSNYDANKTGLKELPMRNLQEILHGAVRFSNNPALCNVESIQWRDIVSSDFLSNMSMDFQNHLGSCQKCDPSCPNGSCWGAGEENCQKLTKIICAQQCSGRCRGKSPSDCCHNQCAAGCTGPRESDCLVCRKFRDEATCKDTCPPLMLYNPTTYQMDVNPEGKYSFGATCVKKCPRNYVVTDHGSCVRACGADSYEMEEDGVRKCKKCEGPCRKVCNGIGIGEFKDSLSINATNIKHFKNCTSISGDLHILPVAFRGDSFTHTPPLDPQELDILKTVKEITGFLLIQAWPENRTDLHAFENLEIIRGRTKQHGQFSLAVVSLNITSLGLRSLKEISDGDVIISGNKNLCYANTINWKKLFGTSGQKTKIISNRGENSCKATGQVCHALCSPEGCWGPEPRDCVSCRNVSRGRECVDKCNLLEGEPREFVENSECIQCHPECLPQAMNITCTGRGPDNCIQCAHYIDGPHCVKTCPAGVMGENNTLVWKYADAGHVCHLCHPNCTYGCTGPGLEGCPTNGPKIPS
Method: (§4) The designed erbB peptides were tested for binding to erbB receptors using surface plasmon resonance (Biacore) technology (described supra) using soluble erbB-1 and erbB-3. The response was plotted in real time in the form of sensorgram curves.
as §3

ErbB3 = target: T5, ErbB3 (Homo sapiens, UniProt P21860); assay: Surface plasmon resonance (Biacore) binding to immobilized ErbB3 extracellular domain; details: immobilized extracellular domain, surface plasmon resonance; read-out: KD (μM) ErbB3
T5 construct: gift of Dr. Mark A. Lemmon, University of Pennsylvania School of Medicine
T5 sequence (P21860 20-643 limits assumed): as the sequence (P21860 20-643 limits assumed) above
Method: as §4, §3

[3] = target: T6, erbB3-erbB2 heteromerization (Homo sapiens, UniProt P04626); assay: SPR inhibition of HRGβ1-induced binding of ErbB3 to immobilized ErbB2; details: peptide 10 μm, ErbB3 300 nm, HRGβ1 5 μM
T6 construct: the ectodomains of erbB receptors were immobilized on the surface chip; erbB2: Dr. Che Law, Xcyte Therapeutics; erbB3: Dr. Mark A. Lemmon
T6 sequence (P04626 23-652 limits assumed, one chain of several): as the sequence (P04626 23-652 limits assumed) above
Method: as §1, §2, §3

[4] = target: T7, erbB3-erbB1 heteromerization (Homo sapiens, UniProt P00533); assay: SPR inhibition of HRGβ1-induced binding of ErbB3 to immobilized ErbB1; details: peptide 10 μm, ErbB3 300 nm, HRGβ1 5 μM
T7 construct: the ectodomains of erbB receptors were immobilized on the surface chip; erbB1 and erbB3: gift of Dr. Mark A. Lemmon
T7 sequence (P00533 25-645 limits assumed, one chain of several): as the sequence (P00533 25-645 limits assumed) above
Method: as §1, §2, §3

C[C@@H]1NC(=O)CNC(=O)[C@H](CCC(=O)O)NC(=O)[C@H](CCC(=O)O)NC(=O)[C@H](CC(=O)O)NC(=O)[C@@H]2CCCN2C(=O)[C@H](Cc2ccccc2)NC(=O)[C@@H](NC(=O)[C@@H](N)Cc2ccc(O)cc2)CSSC[C@@H](C(=O)N[C@@H](Cc2ccc(O)cc2)C(N)=O)NC1=O [B2-S22-AFA, YCFPDEEGACY] (H-YCFPDEEGACY-NH2; disulfide 2-10)
Percent Inhibition ErbB3 [1]: 61.7%
Kd (ErbB2): 0.302 µM
IC50 [2]: 800 nM
Kd (ErbB1): 0.407 µM
Kd (ErbB3): 0.429 µM
Percent Inhibition ErbB2 [3]: 82.5%
Percent Inhibition ErbB1 [4]: 78.4%
